Laboratory results: patent US7195752B2, “Surfactant compounds and uses thereof” (Glaxo Group Limited, priority 2001, dated 2007)

Key:
[1] = Particle size by image analysis (Galai CIS-100) of salmeterol xinafoate HFA 134a suspension; type: physicochemical; conditions: salmeterol xinafoate 25 μg per actuation in HFA 134a, 10% w/w (relative to drug) surfactant; mean of 4 determinations
Description: (§1) Salmeterol xinafoate formulations in HFA 134a, of strength 25 μg per actuation, and 10% w/w (relative to drug) of the relevant surfactant compound of formula (I) were prepared using salmeterol xinafoate (5.8 mg), HFA 134a (12 g) and the relevant compound (0.58 mg). The control was prepared without the addition of a surfactant.
In this measurement, particle size is represented as the equivalent diameter of a circle of equal area to the object. The mean is the average of 4 determinations. The particle size measurement was obtained by transferring the suspensions to a presurised cell, and video-imaging the sample under shear via a microscope objective.
The equivalent diameter is defined as the diameter of a circle of equal area to the object.
The mean equivalent diameter can be weighted by number, length or volume. e.g. For three particles with equivalent diameters of x, y and z: […]

[2] = Content uniformity by dose through use testing of salmeterol xinafoate HFA 134a inhalers; type: physicochemical; conditions: 10% w/w surfactant
Description: as §1
The content uniformity of the formulation, the preparation of which is described above, was assessed by dose through use testing. Testing was performed on 10 cans/inhalers at “beginning of use” (BoU) and “end of use” (EoU). After each inhaler had been primed (4 shots fired to waste), actuations 1 and 2 (BoU) were collected. The next 116 actuations of each inhaler were then fired to waste using an automated method and actuations 119 and 120 (EoU) collected.
The assesment of content uniformity was performed intially (following sample preparation). The results are quoted in Table 2 as the mean of the two BoU actuations for 10 inhalers (1+2 for 10 inhalers) and the mean of two EoU actuations for the said 10 inhalers (119+120 for the same 10 inhalers) together with the percentage relative standard deviation (% RSD).

Q: For O=C(O)COCCCCCCC(F)(F)C(F)(F)F [Example 5, [(7,7,8,8,8-Pentafluorooctyl)oxy]acetic acid], which “Mean Length weighted diameter” value [1] is on record?
A: 13.8 μm

Q: What about the “rise in dose from beginning to end of use” value ([2]; EoU minus BoU dose, 10 inhalers, salmeterol xinafoate in HFA 134a) of the same compound?
A: 1.8 µg

Q: And the BoU dose ([2]; beginning of use, mean of actuations 1+2 for 10 inhalers, salmeterol xinafoate 25 μg per actuation in HFA 134a, initial)?
A: 19.0 µg

Q: And the EoU dose ([2]; end of use, mean of actuations 119+120 for 10 inhalers, salmeterol xinafoate 25 μg per actuation in HFA 134a, initial)?
A: 21.8 µg
